In this experiment the test system is burn caused by light radiation. Description: Light radiation burn model, epithelization of burn wounds (regenerative activity). Type of experiment: in vivo. From the text:
The regenerative activity of the claimed compounds was studied on a model of a burn caused by light radiation on a specialized apparatus. […] Unless this medication is applied to a burn, a keloidal scar is produced on the burn area and no skin appendages are formed.

For `CC(C)(CO)C(O)C(=O)NCCCO` (centres unmarked) [Panthenol, 2,4-dioxy-N-(3-oxypropyl)-3,3-dimethylbutyramide], the “Percentage of fully epithelized burn wounds” value is, setting by setting: (25th day of observations) 55%; (30th day of observations) 85%.

The values are drawn from patent publication US20100286406A1, “1,3- DIALKYLBENZIMIDAZOLE HALOGENIDES EXHIBITING REGENERATIVE, ANTI-INFLAMMATORY, AND ANTIMICROBIAL ACTIVITY” (priority 2007, published 2010).
